Laboratory results from a melting point compilation (Tetko et al.; mined from patent text by program, amines drawn as free bases though some values may be those of a salt).

Point of comparison: `Cc1cc(CN2CCC(N(C)S(=O)(=O)c3ccc(Nc4nccc(Nc5ccc(F)c(C)c5)n4)cc3)CC2)[nH]n1`, melting point 130 °C. Against it:
- CSc1noc(C2CC2)c1C(=O)c1ccc(C(F)(F)F)cc1S(C)(=O)=O — higher, 145 to 146 °C
- COc1ccc(CSC2CC(=O)N2CC(=O)NCCCCCCc2ccc(F)cc2)cc1 (stereo not given) — lower, 53 to 55 °C
- O=C(OCc1ccccc1)C1(NS(=O)(=O)c2ccc(Oc3ccc(F)cc3)cc2)CCCC1 — lower, 97 to 97.5 °C
- CCCn1nc2c(N)nc3ncccc3c2c1CC(C)(C)C(N)=O — higher, 254 to 257 °C
- CC1=C(C(=O)OCCN(C)Cc2ccccc2)C(c2ccccc2C(F)(F)F)c2c(ccnc2OCC(C)C)N1 (stereo not given) — higher, 148 to 150 °C
- Cc1[nH]cc2c1-c1ccc(Cl)cc1C(c1ccccc1F)=NC2 — higher, 226 to 227 °C
- O=CNC[C@H](O)C(=O)OC=O — higher, 140 to 142 °C
- COC(=O)c1cn(C)cn1 — lower, 72.5 to 81 °C
- N#Cc1cccc(NC(=O)CN2CCC(Cc3ccc(F)cc3)CC2)c1 — lower, 101 to 103 °C
- CCCOc1ccc2[nH]c(C(=O)O)cc2c1 — higher, 155 °C
- CC(C)OCCNC(=O)c1ccn2nc(-c3ccccc3)c(-c3ccc(=O)n(C(C)C)n3)c2c1 — lower, 124 to 125 °C
- Cn1c(CCSN2CCC3(CC2)CC(=O)c2cc(NS(C)(=O)=O)ccc2O3)cc(=O)n(C)c1=O — higher, 198 to 201 °C
- O=Cc1cc(Cl)c2c(c1)CCCO2 — lower, 51 °C
- COc1ccc(CC2SC(=O)NC2=O)c2c1N(CC(=O)O)C(=O)CC2 (stereo not given) — higher, 251 to 255 °C
- O=C(O)c1cccc2c(Br)c(O)ccc12 — higher, > 225 °C
- COc1cc(N2CCN(Cc3ccccc3)CC2)c2nccc(C)c2c1 — higher, 154 to 155 °C
- O=C(O)CCc1cccc(-c2nc(=O)c3ccccc3s2)c1 — higher, 180 °C
- COc1ccccc1-c1ccc2c(c1)CCCc1c-2nc2ccc(F)cc2c1C(=O)O — higher, > 300 °C
- CC(c1cc2ccccc2o1)N(O)C(N)=O (stereo not given) — higher, 147 to 150 °C
- OCC(CO)OCc1ccccc1 — lower, 38 to 39 °C
- CCc1ccc(NC(=O)c2ccccc2CN2C(=O)C3(COc4cc5c(cc43)CCO5)c3ccccc32)cc1 (stereo not given) — higher, > 230 °C
- COc1cc(OC)c2c(C)c(CCN3CCN(c4ccccc4F)CC3)c(=O)oc2c1 — higher, 152 to 153 °C
- FC(F)(F)CSc1nc2cc(Cl)ccc2[nH]1 — lower, 127 to 129 °C
- CCC(CC)C1CC(=O)C(C(=O)NS(=O)(=O)c2ccc(Cl)cc2)C(=O)C1 (stereo not given) — lower, 121 to 122 °C
- O=[N+]([O-])c1ccc2onc(-c3ccccc3O)c2c1 — higher, 172 to 176 °C
- CC(C)(C)OC(=O)N1CC2CC(CN(CC(O)COc3ccccc3)C2)C1 (stereo not given) — lower, 86 to 88 °C
- Cc1cc(-c2nn(C(C)c3oc4ccccc4c(=O)c3-c3cccc(F)c3)c3ncnc(N)c23)ccn1 (stereo not given) — higher, 266 to 268 °C
- CCOC(=O)C(C(=O)OCC)C(=O)C(C)Oc1cc(Cl)c(Cl)cc1Cl (stereo not given) — lower, 62 to 66 °C
- COc1cc(C)nc(NC(=O)NS(=O)(=O)c2ccccc2N)n1 — higher, 210 to 215 °C
- Nc1ccc(Oc2ccc(Cl)c(Cl)c2)nc1 — lower, 78 to 79.3 °C
- COc1ccc2[nH]c(C(N)=O)c(OC(C)C)c2c1 — higher, 138 to 140 °C
- CC(C)(C)NS(=O)(=O)c1ccccc1-c1ccc(NC(=O)C(=O)O)cc1 — higher, 159 °C
- CCOC(=O)CC(=O)c1cc(F)c(F)c(F)c1F — lower, 47 to 49 °C
- COC(=O)c1c(Cl)cc(Cl)cc1NC(=O)CSc1ccccc1Cl — lower, 98 to 99 °C
- CC1(C)OC[C@H]([C@@H](CS(=O)(=O)c2ccc(Oc3ccc(C(F)(F)F)cc3)cc2)N(O)C=O)O1 — higher, 141 to 143 °C
- O=C(O)c1ccc(NCCCCCc2ccccc2)cc1 — higher, 141 to 143 °C
- CSc1nn2c(N)cc(C)nc2c1S(=O)(=O)c1ccc(I)cc1 — higher, > 230 °C
- N#CNC1=NC(c2ccc(OC(F)(F)F)cc2)(c2cccc(-c3cncnc3)c2)C2=NCCCN12 (stereo not given) — higher, 227 to 231 °C
- Cc1cc(C#N)cc(C(C#N)c2nc(OCc3ccccc3)nc(OCc3ccccc3)c2C(C)(C)C)c1 (stereo not given) — lower, 126 to 128 °C
- COC(=O)/C=C/c1ccc(CC(C)NCC(O)c2ccccc2F)cc1 (stereo not given) — lower, 111 to 116 °C
- Cc1cc(C=CC#N)c(Cl)cc1F — lower, 90 to 91 °C
- CCOC(=O)Cc1ccc(C(=O)c2ccc(Cl)cc2)n1C — lower, 74 to 76 °C
- CC1(C)CC(S(=O)(=O)Cc2c(C(F)(F)F)nn(C(F)F)c2Cl)=NO1 — lower, 126 to 127 °C
- CN=C(N)Nc1nc(CSCCNC2=NS(=O)N=C2N)cs1 (stereo not given) — lower, 86 to 91 °C
- CCOC(=O)C1=C(C)N2CCCC2=C(C(C)=O)C1c1cccc([N+](=O)[O-])c1 (stereo not given) — higher, 161 °C
- O=Cc1c2ccccc2c(SCCO)c2ccccc12 — lower, 103 to 104 °C
- CCCCCC1=C(c2ccc(F)cc2)C(=NO)CC1 — lower, 101 to 102 °C
- COC(=O)C(O)C(C)(Oc1ccc(Br)cc1)c1ccccc1 (stereo not given) — higher, 133 to 135 °C
- Cc1c(C(N)=O)c2ccccc2n2c(N(C)C)nc(-c3noc(C4CC4)n3)c12 — higher, 190 to 192 °C
- Cc1oc(-c2ccccc2)nc1COc1ccc(CCc2oc(-c3ccccc3)nc2CC(=O)O)cc1 — higher, 180 to 181 °C
- COC(=O)c1ccc(C#CC(=O)c2ccc3c(c2)C(C)(C)CCC3(C)C)cc1 — lower, 113 to 114 °C
- O=C(O)COc1ccc(SCc2ccc(OCc3ccc(F)c(C(F)(F)F)c3)cc2)c2c1CCC2 — lower, 116 to 117 °C
- O=c1nc(NCN2CCOCC2)c(F)cn1CN1CCOCC1 — higher, 156 to 158 °C
- Cc1cn(Nc2ccncn2)c2ccccc12 — lower, 121 to 123 °C
- CCN1C(=O)C(C)(C)C(=O)N(C)c2cc(CN(CCn3cc(C)c4occc4c3=O)Cc3cccnc3COC)ccc21 — lower, 104 to 111 °C
- COC(CC(=O)c1cccc(Br)c1)C(=O)O (stereo not given) — lower, 82.5 to 83.5 °C
- CCCONC(=O)c1nc(-c2ccc(Cl)c(OC)c2F)cc(N)c1Cl — higher, 165 to 168 °C
- N#Cc1cc(C2=NOC(c3cc(Cl)cc(Cl)c3)(C(F)(F)F)C2)ccc1-n1cccn1 (stereo not given) — higher, 169 to 176 °C
- CCC1=Nc2c(C)nn(C)c2C2=NC(C)CN12 (stereo not given) — higher, 153 to 155 °C
- O=C(NCc1ccccc1Cl)Nc1ccc([N+](=O)[O-])cc1O — higher, 199 to 200 °C
- Cc1ccc(C(=O)c2ccc(F)cc2)nc1 — lower, 127 to 128 °C
- NC(Cc1ccccc1)C(O)C1=NCCS1 (mixture of isomers) — lower, 82.3 to 90 °C
- Cc1ncc(CN)c(N)n1 — higher, 155 °C
- O=C1CCC(c2ccc(-n3cccc3)cc2)=NN1 — higher, 222 to 223 °C
- O=NCNC1=Nc2ccc([N+](=O)[O-])cc2C(c2ccccc2Cl)=NC1 — higher, 164 to 166 °C
- CS(=O)(=O)c1ccc(-n2nc(CCCN3C(=O)c4ccccc4C3=O)cc2-c2ccccc2)cc1 — lower, 62.4 to 72.2 °C
- CNNc1nncc(-c2ccccc2)n1 — lower, 112 to 113 °C
- C[C@H](NC(=O)OC(C)(C)C)C(=O)N1CCC[C@H]1C(=O)O — higher, 155 to 157 °C
- Cc1cccc(-c2ccccc2)c1NC(=S)NC(=O)c1ccccc1 — higher, 172 to 173 °C
- S=c1c(Br)coc2ccccc12 — lower, 41 °C
- CC(C)(C)NC(=O)c1nn(-c2cc(F)c(F)cc2F)c2c1C1CCC2C1 (stereo not given) — not separable, 127 to 130 °C
- COCCOCOc1c(C(C)(C)C)cc(C(=N)NN)cc1C(C)(C)C — higher, 133 °C
- CN1CC(Cn2ccnc2-c2ccccc2)CC2c3cccc4[nH]cc(c34)CC21 (stereo not given) — higher, 193 to 195 °C
- CCC(CC)Nc1cc(C)nc(Cl)c1[N+](=O)[O-] — lower, 82 to 84 °C
- FC(F)(F)c1cc(Br)c2cccc(Cl)c2n1 — lower, 62 to 64 °C
- CC(C)(C)OC(=O)N[C@H](C(=O)N1CCC[C@H]1C(=O)NC1CCc2nc(N)sc2C1)C(c1ccccc1)c1ccccc1 (stereo not given in full) — not separable, 127 to 130 °C
- O=S1(=O)c2cccc3cccc(c23)N1CCN1CCC(CC2C=Cc3ccccc32)CC1 (stereo not given) — higher, 166 °C
- COC(=O)C(=C\c1c(OC)cc(OC)cc1OC)/C(=C\c1ccccc1)C(=O)O — higher, 208 to 210 °C
- CCc1cccc(C(O)CCc2ccccc2)c1NC(=O)CC1c2ccccc2Oc2ccccc21 (stereo not given) — lower, 128 to 129 °C
- O=Cc1ccc2ccn(C3CCN(CCc4ccccc4F)CC3)c2c1 — not separable, 130 to 131 °C
- CCOC(=O)c1c(C)n(-c2ccccc2)c(C)c(C(=O)OCc2ccccc2)c1=O — higher, 142 °C
- COc1cc(O)ccc1CCCc1ccc(O)cc1 — lower, 88 to 89 °C
- O=C1Nc2ncccc2C12COc1cc3c(cc12)OCCO3 (stereo not given) — higher, > 250 °C
- COc1ccc(-c2nnc3c4ccccc4c(CC#N)nn23)cc1 — higher, 252 to 254 °C
- N#Cc1cccc(NC(=O)c2cc(-c3ccc(F)cc3F)ccc2O)c1 — higher, 229 to 230 °C
- COc1cc2c(cc1F)C1(CO2)C(=O)N(CC2CCCCO2)c2ccccc21 (stereo not given) — higher, 131 to 133 °C
- Oc1cc(OCCCCCCCCCCOc2ccc(C(=S)c3ccc(-c4ccccc4)cc3)c(O)c2)ccc1C(=S)c1ccc(-c2ccccc2)cc1 — lower, 125 to 127 °C
- CSc1ccc(C(CC2CCCC2)C(=O)Nc2ccc([N+](=O)[O-])cn2)cc1C(F)(F)F (stereo not given) — lower, 109 to 110 °C
- CC(C)(C)OC(=O)Nc1ccc([N+](=O)[O-])cc1 — lower, 112 to 114 °C
- CON=C(c1ccc(F)cc1)c1ccc2[nH]c(NC(=O)OC)nc2c1 — higher, 290 to 295 °C
- Cc1nn(C)c(C)c1C(=O)NC1CCCCC1 — higher, 185 to 186 °C
- Cn1c(-c2cccnc2)cc(=O)n(C)c1=O — lower, 120 to 122 °C
- COc1cccc([C@H]2O[C@H](CC(=O)NCCc3oc(C(=O)O)cc3C(=O)O)C(=O)N(CC(C)(C)CO)c3ccc(Cl)cc32)c1OC — higher, 155 to 157 °C
- O=C(O)CN1CCN2c3ccccc3Cc3ccccc3C2C1 (stereo not given) — higher, 162 to 163 °C
- C=CCn1c(NCCCOc2ccccc2)nc(N2CCc3ccccc3CC2)c(C#N)c1=O — higher, 157 to 159 °C
- COc1cc2ncc(C#N)c(Nc3cccc(C(F)(F)F)c3)c2cc1OC — higher, 190 to 193 °C
- COc1ccccc1Nc1nc(-c2ccccn2)cs1 — higher, 165 to 166 °C
- O=C1c2ccccc2C(=O)N1n1cccc1Cl — not separable, 130 to 132 °C
- CN1C(=O)CCC2=C1CCc1cc(F)ccc12 — lower, 108 °C
